The structures appear in SMILES notation. Activity calls are given as the source filed them.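 The calls were made as follows: active = cytostatic effect above 60% on a scale from DMSO controls to rapamycin controls, holding yeast in G1/G0 phase; inactive = the rest.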

The test system of the experiment is S. cerevisiae BY4741 DNA content flow cytometry, cell cycle. As to the kind of experiment: S. cerevisiae cell cycle DNA content profile – flow cytometry (AID 504936).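 As to all read-outs here: yeast exposed to compound for three five or seven days before fixation.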 Conditions: at 10 µM; for G1/G0 population: stronger effect = higher value; for G2 population: measured here: G2 phase fraction, stronger effect = lower value; for apoptotic population: measured here: apoptotic fraction. In general terms: In flow cytometry, cells or beads pass a laser one at a time.

Consider `[O-][n+]1c2ccccc2[n+]([O-])c2cc(O)ccc21`, for which the G1/G0 population was 48.4% (inactive), the G2 population came out at 8.17% and the apoptotic population is 37.1%.

Turning to `OCC[n+]1c2ccccc2nc2ccc(N3CCOCC3)cc21`, the G1/G0 population was 74.9% (inactive), the G2 population came out at 12.4% and the apoptotic population stood at 11%.

The values above are taken from PubChem BioAssay AID504936 (NMMLSC, 2011).
